Experiments:
[1] = Inhibition of recombinant N-terminal His6 tagged SUMO-fused Trypanosoma brucei brucei TC221 TAO MTS deletion mutant expressed in Escherichia coli FN102 preincubated for 2 mins followed by ubiquinol-1 addition measured over 2 mins by double beam-dual wavelength UV-spectrophotometry
[2] = Stability in mouse serum assessed as compound hydrolysis after 1 hr by LC/MS analysis; assay type: ADME, cell-free; details: read-out: Drug degradation
[3] = tested on: Trypanosoma brucei brucei; test: Resistance factor, ratio of EC50 for bloodstream trypomastigote stage of Trypanosoma brucei brucei AQP triple knock out to EC50 for bloodstream trypomastigote stage of wild-type Trypanosoma brucei brucei Lister 427; assay type: functional
[4] = tested on: Trypanosoma brucei brucei; test: Resistance factor, ratio of EC50 for bloodstream trypomastigote stage of wild-type Trypanosoma brucei brucei Lister 427 in presence of 5 mM glycerol to EC50 for bloodstream trypomastigote stage of wild-type Trypanosoma brucei brucei Lister 427; assay type: functional
[5] = tested on: Trypanosoma brucei brucei; test: Anti-parasitic activity against bloodstream trypomastigote stage of wild-type Trypanosoma brucei brucei Lister 427 after 48 hrs by resazurin-based assay; assay type: functional, organism-based; details: Lister 427, 48 h
[6] = tested on: Trypanosoma brucei brucei; test: Resistance factor, ratio of EC50 for bloodstream trypomastigote stage of Trypanosoma brucei brucei with AQP2/3-dd knock out to EC50 for bloodstream trypomastigote stage of wild-type Trypanosoma brucei brucei Lister 427; assay type: functional
[7] = tested on: Trypanosoma brucei brucei; test: Anti-parasitic activity against bloodstream trypomastigote stage of wild-type Trypanosoma brucei brucei Lister 427 after 48 hrs in presence of 5 mM glycerol by resazurin-based assay; assay type: functional, organism-based; details: Lister 427, 48 h
[8] = tested on: Trypanosoma brucei brucei; test: Anti-parasitic activity against bloodstream trypomastigote stage of Trypanosoma brucei brucei with AQP2/3-dd knock out after 48 hrs by resazurin-based assay; assay type: functional, organism-based
[9] = Resistance factor, ratio of EC50 for bloodstream trypomastigote stage of pentamidine/diminazene/melaminophenyl arsenical resistant Trypanosoma brucei B48 to EC50 for bloodstream trypomastigote stage of wild-type Trypanosoma brucei brucei Lister 427; assay type: functional
[10] = tested on: Trypanosoma brucei brucei; test: Anti-parasitic activity against bloodstream trypomastigote stage of Trypanosoma brucei brucei with AQP triple knock out after 48 hrs by resazurin-based assay; assay type: functional, organism-based
[11] = Selectivity index, ratio of CC50 for HEK cells to EC50 for bloodstream trypomastigote stage of wild-type Trypanosoma brucei brucei Lister 427; assay type: toxicity; details: human, read-out: Ratio CC50/EC50
Trypanosoma congolense = test: Anti-parasitic activity against bloodstream form of Trypanosoma congolense IL3000 after 48 hrs by resazurin-based assay; assay type: functional, organism-based; details: IL3000, 48 h
[12] = Cytotoxicity against HEK cells assessed as reduction in cell viability after 30 hrs by resazurin-based assay; details: human
[13] = Noncompetitive inhibition of recombinant N-terminal His6 tagged SUMO-fused Trypanosoma brucei brucei TC221 TAO MTS deletion mutant expressed in Escherichia coli FN102 preincubated for 2 mins followed by ubiquinol-1 addition measured over 2 mins by Lineweaver-Burk plot analysis
Trypanosoma brucei = test: Anti-parasitic activity against bloodstream trypomastigote stage of pentamidine/diminazene/melaminophenyl arsenical resistant Trypanosoma brucei B48 after 48 hrs by resazurin-based assay; assay type: functional, organism-based; details: B48, 48 h
[14] = Selectivity index, ratio of CC50 for HFF cells to EC50 for bloodstream form of Trypanosoma congolense IL3000; assay type: toxicity; details: human, read-out: Ratio CC50/EC50
[15] = Stability in mouse serum assessed as compound hydrolysis after 24 hrs by LC/MS analysis; assay type: ADME, cell-free; details: read-out: Drug degradation
[16] = Half life in mouse serum by LC/MS analysis; assay type: ADME, cell-free
[17] = Selectivity index, ratio of CC50 for HFF cells to EC50 for bloodstream trypomastigote stage of wild-type Trypanosoma brucei brucei Lister 427; assay type: toxicity; details: human, read-out: Ratio CC50/EC50
[18] = Cytotoxicity against HFF cells assessed as reduction in cell viability after 30 hrs by resazurin-based assay; details: human
[19] = Competitive inhibition of recombinant N-terminal His6 tagged SUMO-fused Trypanosoma brucei brucei TC221 TAO MTS deletion mutant expressed in Escherichia coli FN102 preincubated for 2 mins followed by ubiquinol-1 addition measured over 2 mins by Lineweaver-Burk plot analysis
[20] = Selectivity index, ratio of CC50 for HEK cells to EC50 for bloodstream form of Trypanosoma congolense IL3000; assay type: toxicity; details: human, read-out: Ratio CC50/EC50

O=C(OCCCCCCCCCCCCCC[n+]1cccc2ccccc21)c1ccc(O)cc1O
IC50 [1]: 1.36 µM
metabolised at 1 h [2]: 50%

O=C(OCCCCCCCCCCOC(=O)c1ccc(O)cc1O)c1ccc(O)cc1O
Ratio EC50 [3]: 0.14
Ratio EC50 [4]: 0.25
EC50 [5]: 49 µM
Ratio EC50 [6]: 0.5
EC50 [7]: 12.2 µM
EC50 [8]: 24.6 µM
Ratio EC50 [9]: 0.85
IC50 [1]: 0.0069 µM
EC50 [10]: 7.1 µM
selectivity ratio [11]: > 8
EC50 (Trypanosoma congolense): > 100 µM
CC50 at 30 h [12]: > 400 µM
Ki [13]: 0.0341 µM
EC50 (Trypanosoma brucei): 41.6 µM

Cc1cc(O)ccc1C(=O)OCCCCCCCCCCCCCC[n+]1cccc2ccccc21.[Br-]
Ratio EC50 [3]: 0.41
Ratio EC50 [4]: 0.69
EC50 [5]: 0.21 µM
selectivity ratio [14]: > 110
metabolised at 24 h [15]: > 99%
Ratio EC50 [6]: 0.47
EC50 [7]: 0.145 µM
EC50 [8]: 0.1 µM
Ratio EC50 [9]: 1.4
IC50 [1]: 0.03 µM
half-life [16]: 30 min
EC50 [10]: 0.086 µM
selectivity ratio [17]: > 952
CC50 at 30 h [18]: > 200 µM
EC50 (Trypanosoma congolense): 1.82 µM
Ki [19]: 0.0529 µM
EC50 (Trypanosoma brucei): 0.3 µM

O=COCCCCCCCCCCCCCCCCOC(=O)c1ccc(O)cc1O
Ratio EC50 [3]: 0.11
Ratio EC50 [4]: 0.43
EC50 [5]: 11.9 µM
Ratio EC50 [6]: 0.42
EC50 [7]: 5.1 µM
EC50 [8]: 5 µM
Ratio EC50 [9]: 1.1
IC50 [1]: 0.0144 µM
EC50 [10]: 1.27 µM
selectivity ratio [11]: > 34
EC50 (Trypanosoma congolense): > 100 µM
CC50 at 30 h [12]: > 400 µM
Ki [13]: 0.0714 µM
EC50 (Trypanosoma brucei): 13 µM

O=C(OCCCCCCCCCCCCBr)c1ccc(O)cc1O
Ratio EC50 [3]: 0.32
Ratio EC50 [4]: 0.42
selectivity ratio [20]: > 7.7
Ratio EC50 [6]: 0.69
EC50 [7]: 6.2 µM
EC50 [8]: 10 µM
Ratio EC50 [9]: 1.03
IC50 [1]: 0.0174 µM
EC50 [10]: 4.7 µM
selectivity ratio [17]: > 27
CC50 at 30 h [12]: > 400 µM

From ChEMBL document CHEMBL4229345, “Inhibition of trypanosome alternative oxidase without its N-terminal mitochondrial targeting signal (ΔMTS-TAO) by cationic and non-cationic 4-hydroxybenzoate and 4-alkoxybenzaldehyde derivatives active against T. brucei and T. congolense” (Eur J Med Chem, 2018)
